{
  "source": "BindingDB's records for doi:10.1021/jm0702579",
  "about": "(National Cancer Institute-Frederick, 2007)",
  "test": "Ratio of Ki for mouse wild type C1b domain of PKCdelta to Ki for mouse PKCdelta C1b Q27E mutant",
  "note": "pKi: −log10 of the molar value.",
  "data": [
    {"smiles": "CCCC(=O)O[C@@H]1[C@@H](C)[C@@]2(O)[C@@H](C=C(CO)C[C@]3(O)C(=O)C(C)=C[C@@H]23)[C@@H]2C(C)(C)[C@]12OC(=O)CCC", "note": "[(1aR,1bS,4aR,7aS,7bS,8R,9R,9aS)-4a,7b-dihydroxy-3-(hydroxymethyl)-1,1,6,8-tetramethyl-5-oxo-1,1a,1b,4,4a,5,7a,7b,8,9-decahydro-9aH-cyclopropa[3,4]benzo[1,2-e]azulene-9,9a-diyl dibutanoate]", "values": [
      {"measurement": "pKi", "value": 7.72}
    ]}
  ]
}
